Consider 58 molecules from the METLIN SMRT retention time set (Domingo-Almenara et al. 2019).

Structures are written as SMILES.

This series in a line: gradient 5% acetonitrile 3 min, to 50% in 2 min, to 85% in 15 min, held 3 min, 100 µL/min. Particulars: column: Zorbax Extend-C18 2.1 x 50 mm; eluents: water / acetonitrile, 0.1% formic acid. The method in brief:
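Mixtures of ~100 pure standards were chromatographed on a Zorbax Extend-C18 column (2.1 × 50 mm, 1.8 μm) at 100 μL/min using water and acetonitrile, each with 0.1% formic acid. Detection used a quadrupole time-of-flight mass spectrometer in positive and negative ionization mode, and data collection spanned 3 months. Retention time was obtained from adduct peaks picked computationally and each checked manually.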
In turn, `CCCCC(=O)Nc1ccc2nc(N3CCN(CCC#N)CC3)cc(C(=O)O)c2c1` came in with an RP-LC retention time of 570 s.

In turn, `CCc1nc2c(c(=O)n1CC(=O)Nc1cc(C)ccc1C)CN(Cc1ccccc1)CC2` gave an RP-LC retention time of 679 s.

As for `CCOc1ccccc1NC(=O)CN1CCN(Cc2ccc(C)cc2)C(=O)C1=O`, the RP-LC retention time amounted to 848 s.

Molecule `COCc1ncc(C)n1C1CCN(C(=O)c2ccc(Cc3c(C)noc3C)o2)C1` (stereo not drawn) gave an RP-LC retention time of 602 s.

As for `Cc1ccc(NC(=O)Cn2cnc3c(c2=O)CCCC3)cc1`, the RP-LC retention time was 710 s.

As for `O=C(NCCc1ccsc1)C1CC(=O)N(c2ccc(F)cc2)C1` (stereo not drawn), the RP-LC retention time was determined as 698 s.

In the case of `COCC(=O)N(CC(=O)N1CCc2sccc2C1COc1ccc(C)cc1C)CC1CCCO1` (stereo not drawn), the RP-LC retention time is 929 s.

The molecule `CCOc1ccccc1N1CCN(c2cc(C(=O)O)c3cc(NC(=O)C4CCCC4)ccc3n2)CC1` yielded an RP-LC retention time of 638 s.

As to `COc1cccc(-c2cc(=O)c3ccccc3o2)c1N`, the RP-LC retention time came to 948 s.

Turning to `CCC(=O)Nc1ccc(SCc2nnc(-c3ccccc3)o2)cc1`, the RP-LC retention time was 811 s.

The molecule `Cc1ccc(-n2nc(C)c3sc(N4CCCC(C(=O)NC5CCCC5)C4)nc32)cc1` (stereo not drawn) returned an RP-LC retention time of 1150 s.

`Cc1ccc(NC(=O)N2CC(N(Cc3ccncc3)CC(C)C)C2)cc1F` had an RP-LC retention time of 705 s.

Take `Cc1ccc(-n2c(=O)c3c(cc(C)n3C)n(CC(=O)Nc3ccc(C)cc3Cl)c2=O)cc1`: the RP-LC retention time was found to be 960 s.

For `COC(=O)CNC(=O)N1CCN(c2nc3ccccc3n3cccc23)CC1`, the RP-LC retention time stood at 590 s.

As to `CCc1nc(-n2cccc2)sc1C(=O)Nc1cccc(C)c1`, the RP-LC retention time stood at 1150 s.

In turn, `COCCN1CCC2(CC1)CN(Cc1ccccc1OC(C)C)Cc1ccccc1O2` came in with an RP-LC retention time of 611 s.

In the case of `CC(C)(C)C(=O)Nc1ccc(N2CCN(CC(=O)N3CCCC3)CC2)cc1C(=O)O`, the RP-LC retention time was 573 s.

Turning to `COc1ccc(Br)cc1CNC(=O)c1sc2ncccc2c1-n1cccc1`, the RP-LC retention time was 1130 s.

`O=C(NCC(=O)N1CCn2c1nc1ccccc12)c1ccc(=O)[nH]c1` showed an RP-LC retention time of 555 s.

Consider `Cc1ccc(CNC(=O)C2(C)CN(S(C)(=O)=O)CC(=O)N2Cc2ccc(F)cc2)cc1` (stereo not drawn), for which the RP-LC retention time turned out to be 836 s.

As for `COC(=O)c1cc2c(=O)n(-c3ccc(NC(C)=O)cc3)ccc2nc1C`, the RP-LC retention time was determined as 675 s.

As for `CCCNC(=O)c1ccc2c(=O)n(Cc3ccccc3)c(N3CCCC3)nc2c1`, the RP-LC retention time came to 719 s.

In turn, `CCc1nn2c(CNC(=O)c3ccc(C(F)(F)F)cc3)c(-c3ccccc3)nc2s1` displayed an RP-LC retention time of 1020 s.

Take `Cc1ccc(-c2noc(-c3cccc(S(=O)(=O)N4CCN(c5ccccn5)CC4)c3)n2)cc1`: the RP-LC retention time came out at 995 s.

Turning to `COc1ccc(CCc2nc(Cn3c(C)nc4ccccc4c3=O)no2)cc1`, the RP-LC retention time came out at 858 s.

`O=C(NCCCN1CCOCC1)c1cc2n(n1)CCCN(Cc1ccccc1)C2=O` registered an RP-LC retention time of 594 s.

The molecule `Cc1nn2c(CNS(=O)(=O)c3ccc(F)cc3F)c(-c3ccccc3)nc2s1` registered an RP-LC retention time of 867 s.

On to `COc1ccc(N2C=C(C(=O)N3CCCC3)S(=O)(=O)c3ccc(F)cc32)cc1`, for which the RP-LC retention time is 736 s.

In turn, `CCOc1ccc(CNC(=O)c2sccc2S(=O)(=O)N(C)c2ccc(OCC)cc2)cc1` yielded an RP-LC retention time of 1170 s.

`Cn1c(=O)c2c(nc3n(-c4ccccc4N)c(-c4ccc(Cl)cc4)cn23)n(C)c1=O`: the RP-LC retention time is 883 s.

`Cc1nc(-c2csc(S(=O)(=O)N3CCC(C(=O)NCCc4ccc(Cl)cc4)CC3)c2)no1` registered an RP-LC retention time of 938 s.

`CCCCN1CCN(C(=O)c2cc(CC)n3nc(-c4ccccn4)cc3n2)CC1`: the RP-LC retention time was 614 s.

On to `Cc1ccc(S(=O)(=O)N2CCc3nc(-c4ccc(Cl)cc4)ncc3C2)cc1`, for which the RP-LC retention time came out at 1150 s.

In turn, `O=C(Cn1ccnc1)N1CCCC(OCc2nc(C3CC3)no2)C1` (stereo not drawn) yielded an RP-LC retention time of 580 s.

Molecule `COc1cc(C2CC(=O)N(CC(=O)N3CCCC3)c3ccccc3S2)cc(OC)c1OC` (stereo not drawn) showed an RP-LC retention time of 792 s.

In turn, `CCn1c(CNC(=O)C2CCC2)nc2c1CN(S(=O)(=O)c1ccc(C)cc1)CC2` showed an RP-LC retention time of 649 s.

For the molecule `Fc1ccc(-c2nc(CC3CCNC3)no2)cc1` (stereo not drawn), the RP-LC retention time stood at 621 s.

`COc1cccc(NC(=O)CN2C(=O)NC3(CCC(C)CC3)C2=O)c1` (stereo not drawn) came in with an RP-LC retention time of 789 s.

In turn, `CCOc1ccccc1NC(=O)N1CCc2cn(CCOC)c3cccc(c23)C1` came in with an RP-LC retention time of 827 s.

On to `COCCN1C(=O)CCc2cc(NC(=O)c3ccccc3Br)ccc21`, for which the RP-LC retention time was 746 s.

`CC(C)NC(=O)c1ccc(OCC2CCN(C(=O)c3ccccc3F)CC2)cc1`: the RP-LC retention time came to 822 s.

Regarding `CCN1C(=O)c2ccccc2Sc2cc(-c3noc(CNC(=O)c4cccs4)n3)ccc21`, the RP-LC retention time stood at 917 s.

Regarding `CCc1ccc(NS(=O)(=O)c2cc(-c3[nH]ncc3C(=O)N3CCOCC3)oc2C)cc1`, the RP-LC retention time turned out to be 721 s.

Molecule `CC(C)(C)c1cc(C(=O)Nc2ccccc2)nc2ccnn12` displayed an RP-LC retention time of 1250 s.

`Cc1ccccc1Nc1c(-c2ccc(Cl)cc2)nc2c(C)cccn12`: the RP-LC retention time turned out to be 802 s.

In turn, `COc1ccc(Cn2nc3c(S(=O)(=O)N4CCOCC4)cccn3c2=O)cc1F` showed an RP-LC retention time of 773 s.

On to `COc1nn(C)cc1C(=O)Nc1ccc(Cl)c(Cl)c1`, for which the RP-LC retention time was found to be 864 s.

Consider `Cc1ccc2c(c1)N(Cc1nc(-c3cccc(Br)c3)no1)C(=O)CO2`, for which the RP-LC retention time is 1180 s.

The molecule `Cc1cc(-c2nnc(-c3ccccc3)o2)c(C)n1CC(=O)Nc1ccc2c(c1)OCO2` registered an RP-LC retention time of 596 s.

The molecule `Cc1nn2c(CNS(=O)(=O)c3cc(F)ccc3F)c(-c3ccccc3)nc2s1` returned an RP-LC retention time of 848 s.

`CCN1C(=O)c2cc(S(=O)(=O)Nc3cc(F)cc(F)c3)ccc2Oc2cccnc21` returned an RP-LC retention time of 1040 s.

As to `COc1cc(CN(C)C2CCc3nnc(C4CCOCC4)n3CC2)cc(OC)c1` (stereo not drawn), the RP-LC retention time was determined as 544 s.

Regarding `CCc1nnc2ccc(-c3noc(-c4c(F)cccc4F)n3)cn12`, the RP-LC retention time came out at 845 s.

In the case of `COc1cccc(C2C(C(=O)NCCC(C)C)c3ccccc3C(=O)N2C2CC2)c1` (stereo not drawn), the RP-LC retention time was 838 s.

For `CCCc1noc(-c2ccnc(-n3cnc(C(=O)NC(C)C)c3)c2)n1`, the RP-LC retention time worked out at 849 s.

With `Cc1c(-c2noc(-c3ccc4cc[nH]c4c3)n2)nnn1Cc1ccccc1`, the RP-LC retention time is 1010 s.

In turn, `Cc1nc(-c2cccc(-c3noc(C(=O)NCCCN4CCC(C)CC4)n3)c2)cs1` had an RP-LC retention time of 699 s.

With `CCOC(=O)c1nc(NCCCN2CCN(c3cc(C)ccc3C)CC2)c2ccccc2n1`, the RP-LC retention time was 715 s.
